What all share (format): functional
The subject of assay [1] is Pseudomonas aeruginosa. Briefly: Antimicrobial susceptibility of carbapenem-resistant Pseudomonas aeruginosa PA2404 isolate expressing carbapenemase KPC2.
The subject of assay [2] is Pseudomonas aeruginosa. Briefly: Antimicrobial susceptibility of carbapenem-resistant Pseudomonas aeruginosa PA4036 isolate expressing carbapenemase KPC2.
Assay [3] has as its system Citrobacter freundii. The assay can be described thus: Antimicrobial susceptibility of Citrobacter freundii CF6010 isolate expressing carbapenemase KPC2.
For assay [4], the system named is Pseudomonas aeruginosa. The assay can be described thus: Antimicrobial susceptibility of carbapenem-resistant Pseudomonas aeruginosa PA4012 isolate expressing carbapenemase KPC2.

In brackets after ≈: the same amount, converted by molar mass.

Regarding `CC(O)[C@H]1C(=O)N2C(C(=O)O)=C(SCCNC=N)C[C@H]12` (single isomer, unassigned) [IMIPENEM ANHYDROUS], the MIC (in general, the lowest concentration that inhibits growth of the organism) in assay [1] was 256 µg/mL (≈ 855 µM); in assay [2], above 256 µg/mL; in assay [3], 8 µg/mL (≈ 26.7 µM); in assay [4], above 256 µg/mL.
With `CO/N=C(\C(=O)N[C@@H]1C(=O)N2C(C(=O)O)=C(COC(C)=O)CS[C@H]12)c1csc(N)n1` (stereo in doubt) [CEFOTAXIME], the MIC in assay [1] was above 256 µg/mL; in assay [2] it was above 256 µg/mL; in assay [3], 32 µg/mL (≈ 70.3 µM); in assay [4] it was above 256 µg/mL.
Turning to `NCC[C@H](O)C(=O)N[C@@H]1C[C@H](N)[C@@H](O[C@H]2O[C@H](CN)[C@@H](O)[C@H](O)[C@H]2O)[C@H](O)[C@H]1O[C@H]1O[C@H](CO)[C@@H](O)[C@H](N)[C@H]1O` [AMIKACIN], the MIC is 16 µg/mL (≈ 27.3 µM) in assay [1], 16 µg/mL (≈ 27.3 µM) in assay [2], 2 µg/mL (≈ 3.42 µM) in assay [3] and 16 µg/mL (≈ 27.3 µM) in assay [4].
Consider `CC1(C)S[C@@H]2[C@H](NC(=O)[C@H](N)c3ccccc3)C(=O)N2[C@H]1C(=O)O` [AMPICILLIN], for which the MIC in assay [1], in assay [2], in assay [3] and in assay [4] was above 256 µg/mL in each case.
As to `C[C@H]1[C@H](NC(=O)/C(=N\OC(C)(C)C(=O)O)c2csc(N)n2)C(=O)N1S(=O)(=O)O` [AZTREONAM], the minimum inhibitory concentration (MIC) in assay [1] was above 256 µg/mL; in assay [2], above 256 µg/mL; in assay [3] it was 128 µg/mL (≈ 294 µM); in assay [4], above 256 µg/mL.
For `CO/N=C(\C(=O)N[C@@H]1C(=O)N2C(C(=O)[O-])=C(C[N+]3(C)CCCC3)CS[C@H]12)c1csc(N)n1` [CEFEPIME], the MIC in assay [1] was above 256 µg/mL; in assay [2], above 256 µg/mL; in assay [3], 8 µg/mL (≈ 16.6 µM); in assay [4], above 256 µg/mL.
With `CC(C)(O/N=C(\C(=O)N[C@@H]1C(=O)N2C(C(=O)[O-])=C(C[n+]3ccccc3)CS[C@H]12)c1csc(N)n1)C(=O)O` [CEFTAZIDIME], the MIC in assay [1] came out at 256 µg/mL (≈ 468 µM); in assay [2] it was 256 µg/mL (≈ 468 µM); in assay [3], 32 µg/mL (≈ 58.5 µM); in assay [4], 256 µg/mL (≈ 468 µM).
Consider `CO/N=C(\C(=O)N[C@@H]1C(=O)N2C(C(=O)O)=C(CSc3nc(=O)c(O)nn3C)CS[C@H]12)c1csc(N)n1` [CEFTRIAXONE], for which the MIC in assay [1] was above 256 µg/mL; in assay [2] it was above 256 µg/mL; in assay [3], 256 µg/mL (≈ 462 µM); in assay [4], above 256 µg/mL.
As to `C[C@@H](O)[C@H]1C(=O)N2C(C(=O)O)=C(S[C@@H]3CN[C@H](C(=O)Nc4cccc(C(=O)O)c4)C3)[C@H](C)[C@H]12` [ERTAPENEM], the MIC is above 256 µg/mL in assay [1], above 256 µg/mL in assay [2], 16 µg/mL (≈ 33.6 µM) in assay [3] and 256 µg/mL (≈ 538 µM) in assay [4].
Take `C[C@@H](O)[C@H]1C(=O)N2C(C(=O)O)=C(S[C@@H]3CN[C@H](C(=O)N(C)C)C3)[C@H](C)[C@H]12` [MEROPENEM]: the MIC is above 256 µg/mL in assay [1], above 256 µg/mL in assay [2], 8 µg/mL (≈ 20.9 µM) in assay [3] and above 256 µg/mL in assay [4].
On to `CCN1CCN(C(=O)N[C@@H](C(=O)N[C@@H]2C(=O)N3[C@@H]2SC(C)(C)[C@@H]3C(=O)O)c2ccccc2)C(=O)C1=O` [PIPERACILLIN], for which the MIC in assay [1], in assay [2], in assay [3] and in assay [4] was above 256 µg/mL each time.
Consider `CN(C)c1cc(NC(=O)CNC(C)(C)C)c(O)c2c1C[C@H]1C[C@H]3[C@H](N(C)C)C(O)=C(C(N)=O)C(=O)[C@@]3(O)C(O)=C1C2=O` [TIGECYCLINE], for which the MIC stood at 16 µg/mL (≈ 27.3 µM) in assay [1], 16 µg/mL (≈ 27.3 µM) in assay [2], 0.5 µg/mL (≈ 0.854 µM) in assay [3] and 16 µg/mL (≈ 27.3 µM) in assay [4].
As for `NC[C@H]1O[C@H](O[C@H]2[C@H](O)[C@@H](O[C@H]3O[C@H](CO)[C@@H](O)[C@H](N)[C@H]3O)[C@H](N)C[C@@H]2N)[C@H](N)C[C@@H]1O` [TOBRAMYCIN], the minimal inhibitory concentration (MIC) in assay [1] was above 128 µg/mL; in assay [2], above 128 µg/mL; in assay [3] it was 64 µg/mL (≈ 137 µM); in assay [4], above 128 µg/mL.
COLISTIN: the MIC in assay [1] turned out to be 1 µg/mL; in assay [2], 1 µg/mL; in assay [3] it was 0.5 µg/mL; in assay [4], 2 µg/mL.
On to GENTAMICIN, for which the MIC in assay [1], in assay [2], in assay [3] and in assay [4] was above 128 µg/mL each time.

The record behind these values is ChEMBL document CHEMBL1147103, “First identification of Pseudomonas aeruginosa isolates producing a KPC-type carbapenem-hydrolyzing beta-lactamase” (2007).
